# Reference: ChEMBL document CHEMBL3431459, “Roche carnitine palmitoyltransferase modulator screening data (supplementary data associated with the publication CHEMBL2216752)”
# Assays:
# [1] = SUPPLEMENTARY: PAMPA permeability assay; format: physicochemical; details: read-out: Permeability
# [2] = SUPPLEMENTARY: Lyophilisation Solubility Assay (LYSA); format: physicochemical; details: read-out: Kinetic_solubility
# [3] = SUPPLEMENTARY: Lipophilicity (log D) Determination by high-throughput shake-flask; format: physicochemical; details: octanol/water
# [4] = molecular target: T1, Carnitine O-palmitoyltransferase 1, liver isoform (Homo sapiens, UniProt P50416); experiment: (§1) SUPPLEMENTARY: Inhibition of Carnitine palmitoyltransferase 1, liver isoform
# T1 sequence (P50416 whole entry): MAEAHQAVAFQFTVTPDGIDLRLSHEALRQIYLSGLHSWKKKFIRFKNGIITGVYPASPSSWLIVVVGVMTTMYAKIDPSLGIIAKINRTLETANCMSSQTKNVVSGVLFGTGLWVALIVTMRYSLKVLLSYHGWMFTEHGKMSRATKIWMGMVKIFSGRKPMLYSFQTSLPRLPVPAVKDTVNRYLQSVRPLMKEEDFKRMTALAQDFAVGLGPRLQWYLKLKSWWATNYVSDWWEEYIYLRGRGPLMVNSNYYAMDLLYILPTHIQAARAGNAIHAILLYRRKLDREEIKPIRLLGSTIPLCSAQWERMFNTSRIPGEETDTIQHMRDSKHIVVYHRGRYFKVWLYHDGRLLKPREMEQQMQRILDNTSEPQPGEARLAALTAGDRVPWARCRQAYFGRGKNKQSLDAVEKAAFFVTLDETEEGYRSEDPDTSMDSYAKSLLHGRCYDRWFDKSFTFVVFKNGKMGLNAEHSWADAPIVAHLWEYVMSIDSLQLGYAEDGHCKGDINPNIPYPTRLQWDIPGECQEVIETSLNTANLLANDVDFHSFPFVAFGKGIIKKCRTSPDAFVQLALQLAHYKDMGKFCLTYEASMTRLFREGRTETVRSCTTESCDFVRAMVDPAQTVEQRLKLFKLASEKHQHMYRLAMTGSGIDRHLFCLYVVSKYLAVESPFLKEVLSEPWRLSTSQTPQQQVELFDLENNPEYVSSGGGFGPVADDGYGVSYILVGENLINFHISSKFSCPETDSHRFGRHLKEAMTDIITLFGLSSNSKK
# [5] = molecular target: T2, Carnitine O-palmitoyltransferase 1, liver isoform (Rattus norvegicus, UniProt P32198); experiment: as §1
# T2 sequence (P32198 whole entry): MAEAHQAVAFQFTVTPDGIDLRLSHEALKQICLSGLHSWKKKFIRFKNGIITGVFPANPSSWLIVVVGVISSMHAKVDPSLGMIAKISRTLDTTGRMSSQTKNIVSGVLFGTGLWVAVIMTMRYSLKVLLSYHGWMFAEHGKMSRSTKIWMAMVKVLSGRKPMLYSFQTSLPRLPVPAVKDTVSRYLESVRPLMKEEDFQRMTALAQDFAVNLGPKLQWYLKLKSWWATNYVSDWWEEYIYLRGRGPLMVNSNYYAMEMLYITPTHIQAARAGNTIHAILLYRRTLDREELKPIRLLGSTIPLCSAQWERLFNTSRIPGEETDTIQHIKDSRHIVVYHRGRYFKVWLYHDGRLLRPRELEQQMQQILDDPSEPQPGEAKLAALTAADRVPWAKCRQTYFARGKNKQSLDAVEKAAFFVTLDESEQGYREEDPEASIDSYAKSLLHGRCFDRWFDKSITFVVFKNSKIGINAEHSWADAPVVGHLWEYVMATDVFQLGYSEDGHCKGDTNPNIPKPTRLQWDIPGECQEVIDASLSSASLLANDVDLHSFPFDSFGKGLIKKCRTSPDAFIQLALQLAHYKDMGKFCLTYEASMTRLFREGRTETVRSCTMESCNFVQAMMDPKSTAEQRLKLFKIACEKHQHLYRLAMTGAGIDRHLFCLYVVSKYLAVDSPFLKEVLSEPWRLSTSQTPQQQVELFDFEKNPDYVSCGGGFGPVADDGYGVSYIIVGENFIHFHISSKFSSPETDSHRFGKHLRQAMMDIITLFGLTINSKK
# [6] = molecular target: T3, Carnitine O-palmitoyltransferase 2, mitochondrial (Homo sapiens, UniProt P23786); experiment: (§2) SUPPLEMENTARY: Inhibition of Carnitine palmitoyltransferase 2
# T3 sequence (P23786 whole entry): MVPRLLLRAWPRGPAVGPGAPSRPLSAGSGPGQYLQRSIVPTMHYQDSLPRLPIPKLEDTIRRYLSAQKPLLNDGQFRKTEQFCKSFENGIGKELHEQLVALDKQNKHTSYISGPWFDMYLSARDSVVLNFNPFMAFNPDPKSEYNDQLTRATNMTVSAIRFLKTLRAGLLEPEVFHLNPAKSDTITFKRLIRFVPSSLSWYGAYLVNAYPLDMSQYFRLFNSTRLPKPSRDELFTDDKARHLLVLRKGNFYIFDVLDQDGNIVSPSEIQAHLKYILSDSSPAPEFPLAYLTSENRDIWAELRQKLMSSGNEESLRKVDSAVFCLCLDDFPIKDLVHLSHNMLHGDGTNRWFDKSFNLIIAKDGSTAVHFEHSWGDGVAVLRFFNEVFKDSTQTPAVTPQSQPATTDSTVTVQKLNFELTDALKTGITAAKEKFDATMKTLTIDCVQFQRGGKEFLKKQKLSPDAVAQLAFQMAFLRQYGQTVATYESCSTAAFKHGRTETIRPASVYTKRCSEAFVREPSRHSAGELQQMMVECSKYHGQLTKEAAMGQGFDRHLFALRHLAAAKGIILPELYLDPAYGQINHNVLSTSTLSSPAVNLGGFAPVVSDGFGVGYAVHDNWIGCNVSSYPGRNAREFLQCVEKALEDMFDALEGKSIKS
# [7] = molecular target: T4, Carnitine O-palmitoyltransferase 2, mitochondrial (Rattus norvegicus, UniProt P18886); experiment: as §2
# T4 sequence (P18886 whole entry): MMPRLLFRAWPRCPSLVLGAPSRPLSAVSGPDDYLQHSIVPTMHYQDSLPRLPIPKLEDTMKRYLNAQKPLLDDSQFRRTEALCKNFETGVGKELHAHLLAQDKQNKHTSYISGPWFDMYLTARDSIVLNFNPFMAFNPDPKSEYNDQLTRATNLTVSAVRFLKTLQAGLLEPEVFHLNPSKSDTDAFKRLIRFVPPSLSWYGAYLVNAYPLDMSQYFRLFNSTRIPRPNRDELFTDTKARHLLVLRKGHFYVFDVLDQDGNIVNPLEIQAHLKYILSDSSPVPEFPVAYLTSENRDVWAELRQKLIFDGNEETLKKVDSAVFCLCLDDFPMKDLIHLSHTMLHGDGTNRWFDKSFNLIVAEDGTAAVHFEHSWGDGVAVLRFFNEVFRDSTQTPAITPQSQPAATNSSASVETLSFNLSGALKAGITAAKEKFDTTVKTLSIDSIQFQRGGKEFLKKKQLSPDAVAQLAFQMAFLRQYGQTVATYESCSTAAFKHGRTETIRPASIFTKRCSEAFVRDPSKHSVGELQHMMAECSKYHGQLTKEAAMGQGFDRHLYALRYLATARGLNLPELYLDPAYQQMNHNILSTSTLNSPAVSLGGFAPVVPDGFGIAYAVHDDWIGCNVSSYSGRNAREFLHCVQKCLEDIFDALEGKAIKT
# [8] = molecular target: T5, Carnitine O-palmitoyltransferase 1, muscle isoform (Homo sapiens, UniProt Q92523); experiment: SUPPLEMENTARY: Inhibition of Carnitine palmitoyltransferase 1, muscle isoform; parameters: species or system Muscle tissue
# T5 sequence (Q92523 whole entry): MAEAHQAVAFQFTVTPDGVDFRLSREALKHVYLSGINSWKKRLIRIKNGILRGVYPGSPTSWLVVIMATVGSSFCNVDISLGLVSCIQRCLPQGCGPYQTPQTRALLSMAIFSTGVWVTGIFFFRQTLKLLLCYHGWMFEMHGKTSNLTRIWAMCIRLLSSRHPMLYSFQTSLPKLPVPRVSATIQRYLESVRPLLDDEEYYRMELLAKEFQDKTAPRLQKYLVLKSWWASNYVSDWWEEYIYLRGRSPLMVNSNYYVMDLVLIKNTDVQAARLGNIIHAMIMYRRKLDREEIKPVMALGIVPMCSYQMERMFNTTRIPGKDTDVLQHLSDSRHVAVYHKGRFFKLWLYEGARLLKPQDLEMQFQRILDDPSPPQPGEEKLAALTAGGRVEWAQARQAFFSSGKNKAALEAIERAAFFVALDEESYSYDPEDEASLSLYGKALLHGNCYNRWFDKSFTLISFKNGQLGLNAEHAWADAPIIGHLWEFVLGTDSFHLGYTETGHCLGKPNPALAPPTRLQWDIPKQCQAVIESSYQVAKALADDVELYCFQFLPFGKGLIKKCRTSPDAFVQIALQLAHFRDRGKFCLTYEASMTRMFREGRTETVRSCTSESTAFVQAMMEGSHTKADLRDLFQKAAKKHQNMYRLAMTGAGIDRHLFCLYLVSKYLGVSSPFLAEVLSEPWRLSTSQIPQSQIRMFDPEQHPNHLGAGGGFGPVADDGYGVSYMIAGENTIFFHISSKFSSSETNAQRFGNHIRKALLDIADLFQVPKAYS
SMILES,Papp [1] [×10⁻⁶ cm/s],solubility kinetic [2] [µg/mL],logD [3],IC50 [4] [nM],IC50 [5] [nM],IC50 [6] [nM],IC50 [7] [nM],IC50 [8] [nM]
COc1ccc(Cl)cc1S(=O)(=O)N1CCc2c(C)cc(C(=O)Nc3ccc(C(=O)O)c(F)c3)cc21,1.65,60,0.77,71,96.2,286,684,3680
CN1CCN(c2cc3c(cc2Cl)CN(C(=O)[C@H]2CCCCN2C(=O)COc2ccccc2)C3)CC1,3.16,242,2.38,87.8,66.6,1990,2670,> 100000
COc1ccc(Cl)cc1S(=O)(=O)N1CCCc2ccc(C(=O)Nc3ccc(C(=O)O)c(F)c3)cc21,1.77,182,0.55,38.1,47.7,2800,10200,3020
CN1CCN(C(=O)COc2ccccc2)[C@@H](c2nc(-c3ccc4[nH]nnc4c3)no2)C1,3.75,167,1.86,24.6,265,> 100000,> 100000,> 100000
O=C1CCCN1c1cccc(-c2noc([C@H]3CCCCN3C(=O)COc3ccccc3)n2)c1,3.86,< 1,3.09,88.8,62.1,> 100000,> 100000,> 100000
Nc1cc(-c2n[nH]c([C@H]3CCCCN3C(=O)COc3ccccc3)n2)ccn1,2.77,281,1.95,123,1330,> 100000,> 100000,> 100000
COc1ccc(Cl)cc1CN1C(=O)OCc2ccc(C(=O)Nc3nc(CC(=O)O)cs3)cc21,1.7,50,0.06,132,203,> 100000,> 100000,21900
